Test results reported in patent US20040242669A1, “Method of treating deficits associated with brain injury” (priority 2003, published 2004).
Where a name gives a salt, the structure may show the parent alone. Marks after values point to notes of the source that are not given here.

Assays:
Assay type in all cases: in vivo, rat
[1] = test system: animals with hypobaric hypoxia-induced amnesia; assay: Step-through passive avoidance, hypobaric hypoxia-induced amnesia; conditions: for Latency: hypobaric hypoxia, median latency to re-enter dark box, max 300 s
Experimental: (§1) Male rats of the Sprague-Dawley strain (purchased from Charles River, Italy) weighing 280±20 g were used throughout all experiments. The animals were housed two-three to a cage under a constant light-dark cycle (lights on between 8.00 and 20.00) at 21° C. Commercial food and tap water were available ad libitum. All animals were used only once in the behavioral experiments.
(§2) Ropinirole (ropinirole hydrochloride, SmithKline Beecham, Italy) and dihydroergocryptine (DHECP) α-dihydroergocryptine methanesulfonate, Monsanto, Italy) were dissolved in saline and injected subcutaneously (s.c.) at the dose of 0.5 and 1 mg/kg/day for 7 days. In the experiments with kainate-induced convulsions, ropinirole or DHECP were injected intravenously (i.v.) 30 min prior, and again at the same time of the intracerebroventricular (i.c.v) injection on kainic acid; Control animals received an injection of saline alone with the same procedure.
Passive avoidance behaviour was studied in a step-through type of passive avoidance situation (Ader et al., Psycon Sci, 26, 125-128 (1972)). Briefly the rats were adapted to the apparatus consisting of a large dark compartment equipped with a grid floor and a mesh-covered elevated runway attached to the front centre of the dark chamber. Adaptation training was followed by a single trial in which the rats were placed on the elevated platform and allowed to enter the dark box. Three such trials were given on the next day with an intertrial interval of 5 min after the trial. The rats received a single 2-s unavoidable scrambled foot-shock (0.20 mA) immediately after entering the dark compartment. Retention of the response was tested 24 h after the learning trial. The rats were placed on the elevated runway and the latency to re-enter the shock compartment was recorded up to a maximum of 300 s.
(§3) In the first experiment, the effects of ropinirole or DHECP were studied on amnesia induced by hypobaric hypoxia in rats. After a 7-day pretreatment with ropinirole, DHECP or saline, a group of animals was subjected to acute hypobaric hypoxia by means of a hypobaric chamber (Chantiers et Ateliers de Bretagne, France) causing depression to 300 mmHg (Boismare et al., Gerentology, 24, 6-13 (1978)). After 3 min in the chamber, the animals were removed and admitted for behavioral testing. Intact control rats were also introduced into the chamber but not subjected to hypobaric hypoxia.

[2] = test system: animals with hypobaric hypoxia-induced amnesia; assay: Open field spontaneous motor activity, hypobaric hypoxia; conditions: vs intact controls and saline-treated hypoxic animals
Experimental: as §1, §2
Spontaneous motor activity was scored in a circular open field arena as described by Weijnen and Slangen, Pituitary, Adrenal and the Brain, pp221-235 (1982). Animals were put inside a circular lit-up arena, with the bottom divided into 27 areas of equal size.
as §3

kainate-induced epilepsy = assay: Kainate-induced convulsions (epilepsy); conditions: for Latency (s) to the first tonic-clonic seizure / Seizures (total number) / Mortality (%): kainic acid 10 μg/2 μl i.c.v.; for Latency (s) to the first tonic-clonic seizure / Seizures (total number): 30-min observation, mean ± S.E.M.; for Mortality (%): checked 2 h after convulsive agent
Experimental: as §1
Another group of animals were implanted under ether anaesthesia with a permanent plastic cannula in the right lateral ventricle (foramen interventriculare, Konig and Klippel A 6360) with another cannula into the right jugular vein. These animals were sacrificed at the end of behavioral procedure and the brains were utilized for biochemical analysis. Data were taken from animals showing no abnormalities at the postmortem examination. All experiments were carried out according to the European Community Council Directive 86/609/ECC and efforts were made to minimize animal suffering and to reduce the number of animals used.
as §2, with “[…],” for “ropinirole or DHECP were injected intravenously (i.v.) 30 min prior,”
Kainic acid (Sigma, USA) was dissolved in saline and injected i.c.v. at the dose of 10 μg/2 μi.
Over a 30-min observation, the following items were recorded per each animal receiving an i.c.v. injection of kainic acid: latency in s to the first tonic-clonic seizure; total number of seizures, percent rate of mortality (checked 2 h after the administration of the convulsive agent).
Behavioral scoring of kainate-induced convulsions was started immediately after i.c.v. injection of the drug and proceeded for 30 min. Ropinirole, DHECP or saline were injected twice, 30 min prior and, again, at the same time of the i.c.v. administration of kainic acid.

[3] = test system: animals with hypobaric hypoxia-induced amnesia; assay: Shuttle-box active avoidance acquisition, hypobaric hypoxia-induced amnesia; conditions: for Learners / CARs: hypobaric hypoxia; for CARs: mean ± S.E.M.
Experimental: as §1, §2
Shuttle-box active avoidance acquisition was studied in a single session test as described in Bohus and De Wied, Endogenous Peptides and Learning and Memory Processes. Academic Press, New York, pp59-775, (1981). Briefly, the rats were trained to avoid the unconditioned stimulus (US) of a scrambled electrical foot-shock (0.20 mA) delivered through the grid floor. The conditioned stimulus (CS) was a buzzer presented for 3 s prior to the US. If no escape occurred within 20 s of CS/US presentation, the shock was terminated. A maximum of 30 conditioning trials were given with a variable intertrial interval averaging 60 s. The learning criterion was five consecutive conditioned avoidance responses (CARs). For those animals that reached the criterion in less than 30 trials, the remaining trials until 30 were considered as CARs. Indexes of avoidance behaviour were the total number of CARs and the percent number of learners per group.
as §3

[4] = hypobaric hypoxia-induced amnesia, summary of Table 1
[5] = kainate-induced seizures, summary of Table 3

CCCN(CCC)CCc1cccc2c1CC(=O)N2 [ROP, 4-[2-(di-n-propylamino)ethyl]-1,3-dihydro-2H-indolin-2-one hydrochloride]
latency to re-enter the dark box (effect of treatment, in words) [1, 4]: increase | Latency ([1]; 0.5 mg/kg/day s.c. for 7 days): 47^e,f | Latency ([1]; 1 mg/kg/day s.c. for 7 days): 65^f | ambulation and rearing (effect of treatment, in words) [2]: higher | latency to the first tonic-clonic seizure (effect of treatment, in words) (kainate-induced epilepsy; [5]): did not modify | percent mortality rate (effect of treatment, in words) (kainate-induced epilepsy; [5]): significant decrease | total number of kainate-induced seizures (effect of treatment, in words) (kainate-induced epilepsy; [5]): did not modify | Latency (s) to the first tonic-clonic seizure (kainate-induced epilepsy; 0.5 mg/kg injected s.c. twice (30 min prior and at kainic acid)): 69.4 ± 8.9 s | Seizures (total number) (kainate-induced epilepsy; 0.5 mg/kg injected s.c. twice): 7.1 ± 0.9 | Mortality (%) (kainate-induced epilepsy; 0.5 mg/kg injected s.c. twice): 20^a % | Latency (s) to the first tonic-clonic seizure (kainate-induced epilepsy; 1 mg/kg injected s.c. twice (30 min prior and at kainic acid)): 65.4 ± 6.9 s | Seizures (total number) (kainate-induced epilepsy; 1 mg/kg injected s.c. twice): 6.9 ± 0.9 | Mortality (%) (kainate-induced epilepsy; 1 mg/kg injected s.c. twice): 10^a % | number of CARs and percent number of learners in the shuttle-box (effect of treatment, in words) [3, 4]: increase | Learners ([3]; 0.5 mg/kg/day s.c. for 7 days): 60^d percent | CARs ([3]; 0.5 mg/kg/day s.c. for 7 days): 16.8 ± 1.3^b | Learners ([3]; 1 mg/kg/day s.c. for 7 days): 70^d percent | CARs ([3]; 1 mg/kg/day s.c. for 7 days): 17.2 ± 1.5^b
